Results taken from US20030087947A1, “Novel photosensitizers of 9-hydroxypheophorbide-a derivatives used for photodynamic therapy” (priority 2000, published 2003).

Columns and labels:
[1] = decomposing slowly in the room temperature; cited from earlier work
SNU-1041 implanted tumor [2] = experiment: Therapeutic effect at the implanted tumor (3 groups, bare fiber tip laser); format: in vivo, nude mice BALB/C/nu/nu; conditions: among 10 cases; intratumoral injection 0.1˜0.2 ml, 660 nm diode laser after 1˜4 hours
Protocol: As experimental animals, 6 weeks aged male nude mice BALB/C/nu/nu were employed, supplying sterilized water and sterilized feed. These animals were bred in filter-top cage under proper temperature and moisture. To implant cultured cancer cell lines into nude mouse, 0.1 ml of SNU-1041 cell line suspension (10^7 cells/0.1 ml) was injected subcutaneously. After injection, the tumor occurred and the volume of tumor became increased after more than 8 weeks observation.
Plain melanoma cell line SNU-1041 was implanted into nude mouse. After the lapse of 8 weeks, it was observed that the tumor became spread in all body. The photodynamic therapy was performed only after the tumor volume became 100˜600 mm^3.
The experimental groups were divided into 3 groups for photodynamic therapy. 660 nm diode laser was inserted and irradiated using bare fiber tip. By monitoring the temperature outside of the tumor, the therapeutic effect caused by hyperthermia was removed. The optimal irradiation strength and time were measured.
The photodynamic therapy was performed when the volume of implanted tumor became about 100˜600 mm^3. The experimental groups were divided into 3 groups.
0.1˜0.2 ml of 9-HPbD-a (0.75 mg/ml) was injected into tumor using 30G syringe. After 1˜4 hours, 660 nm diode laser was irradiated using […] fiber optic tip. […]

[3] = test system: lung cancer A549 cell line; experiment: Cytotoxicity of photosensitizer without irradiation (dark culture, cell death rate); format: cell-based; conditions: 75 μg/ml, dark culture room, 48 hours, no irradiation, mean of 5 experiments
Protocol: (§1) In order to minimize the side light reaction by natural light and lamp, the cell distribution and medium exchange were carried out in green light (500 nm), where the experimental samples were not reacted. After 75 μg/ml of reagent treatment on each 10 dishes at the dark culture room, the experimental samples were cultured for 48 hours. Then, the cell death rate was measured. The data was calculated as a mean value after 5 times experiments. […] Further, the cytotoxicity of 9-HPbD-a could be neglectable.

cyclin B1 = experiment: Western blot analysis of cell cycle regulation during photodynamic therapy; format: cell-based; conditions: 75˜0.0185 μg/ml, 20 joule total light dose
Protocol: FIG. 1 is a photograph showing cell cycle regulation after treating 9-hydroxypheophorbide-a of formula (I) to the cancer cell line.
The change of cell cycle is a key element for evaluating cancer treatment. In most anti-cancer agents, the growth of cancer cells is suppressed by regulating the expression of cell cycle regulation gene. In this example, the change of cell cycle was measured using 9-HPbD-a during the photodynamic therapy. Using various cencentrations of photosensitizer (75˜0.0185 μg/ml) under 20 joule in total light dose, Western blot analysis was carried out to detect the change of cell cycle in accordance with change of regulation activity of cell cycle regulation gene.

[4] = test system: lung cancer A549 cell line; experiment: In-vitro photodynamic therapy efficacy (cell death after irradiation); format: cell-based
Protocol: The cell line added with “Photogem” was treated and irradiated by red light (570˜650 nm, 0.35 mW/cm^2, 315 J/m^2) from fluorescent lamp and the test sample was treated and irradiated by same red light and laser (660 nm, 0.35 mW/cm^2, 315 J/m^2). After irradiation treatment, the cell line was cultured by adding new medium and 10% of fetal calf serum at 37° C. The cytotoxicity was measured by clonogenic assay after 8 days.
The dose-response curve was prepared after following treatment; i) treating each 25 µg/ml of Photogem, 10-hydroxypheophytin-a and 9-hydroxypheophorbide-a (“9-HPbD-a”) to each cell line; ii) laying them for 2 hours; and iii) treating and irradiating the 660 nm light (315 J/m^2). To the Photogem sample, the light (630±10 nm) was used by 1 KW Xenon lamp (Model A 5000; Photon Technology International Inc.; Power density 75 mW/cm^2) equipped with 5 mm diameter of liquid light guide (2000A, Luminex, Munich, Germany).
as §1
Further, in a small amount (0.75 μg/ml), high cell death effect was detected. Using another synthesized compound of 9-HPbD-a in the other batch, the experiment was performed according to same protocol again. We detected the same result through the repeated experiments.
With a very small amount 0.0185 μg/ml of administration, the cell death treated with 9-HPbD-a occurred according to the increase of total light dose.

cancer cell line = experiment: FACS analysis of cell cycle; format: cell-based; conditions: FACS analysis after treatment
SNU-1041 implanted tumor [5] = experiment: Photodynamic therapy using 9-HPbD-a (6 groups, tumor volume and RTG); format: in vivo, nude mice BALB/C/nu/nu
Protocol: The experimental groups were divided into 6 groups when the volume of implanted tumor became about 100˜600 mm^3. Following treatment was performed and the change of tumor was observed.
With only 0.1˜0.15 ml of administration of 9-HPbD-a and liposome conjugate into the tumor, the change of tumor was observed without irradiation.
With only 0.1˜0.15 ml of administration of Photogem into the tumor, the change of tumor was observed without irradiation.
0.1˜0.15 ml of Photogem was administered into the tumor.
0.1˜0.15 ml of 9-HPbD-a and liposome conjugate was administered into the tumor.
The photodynamic therapy was initiated after 2 weeks from implantation of cancer cell line, when the volume of tumor became about 100˜600 mm^3 (FIG. 6).
The measurements of tumor volume were carried out at the time of just before administration of test material; just after administration of 9-HPbD-a; 1 week after administration; 2 weeks after administration; 3 weeks after administration; and 4 weeks after administration. The anti-cancer effect was evaluated by the volume of tumor. The calculation of volume was carried out by using following equation.
(V=volume, A=long axis, B=short axis, C=height)
The evaluation of anti-cancer effect was decided after 4 weeks observation of tumor volume. […] FIG. 7 is a photograph showing that the tumor is treated by administration of 9-HPbD-a with 660 nm diode laser irradiation.

[6] = when used in more than a certain amount; cited from earlier work
[7] = 0.0185 μg/ml, total light dose 100 joule
[8] = 0.0375 μg/ml, total light dose 100 joule
[9] = 0.075 μg/ml, total light dose 100 joule
[10] = 0.75 μg/ml, total light dose 20 joule, 665 nm monochromatic light
[11] = 0.75 μg/ml, total light dose 100 joule
[12] = 7.5 μg/ml, total light dose 20 joule, 665 nm monochromatic light
[13] = 75 μg/ml, total light dose 20 joule, 665 nm monochromatic light
[14] = after 4 weeks from treatment, administration into tumor with 660 nm diode laser irradiation

SMILES | Stability [1] | Cases showing complete elimination of tumor (SNU-1041 implanted tumor [2]) [cases] | Cases showing partial elimination of tumor (SNU-1041 implanted tumor [2]) [cases] | Cytotoxicity (cell death rate) [3] [%] | Amount of cyclin B1 (cyclin B1) | Efficacy (cell death) [4, 7] [%] | Efficacy (cell death) [4, 8] [%] | Efficacy (cell death) [4, 9] [%] | Efficacy (cell death) [4, 10] | Efficacy (cell death) [4, 11] [%] | Efficacy (cell death) [4, 12] | Efficacy (cell death) [4, 13] [%] | Concentration, relative to known photosensitizer concentration, showing considerable cell death effect ([4]; A549, total light dose 20 joule) | Cell cycle effect (cancer cell line) | Relative tumor growth (RTG) (SNU-1041 implanted tumor [5]; [14]) | Volume of tumor (SNU-1041 implanted tumor [5]; [14]) [mm^3] | Change of tumor volume (SNU-1041 implanted tumor [5]; photosensitizer into the tumor only, without irradiation (Group 3 and 4)) | Efficacy (cell death) ([4]; 7.5 μg/ml, total light dose 100 joule) [%] | Toxicity [6]
C=Cc1c(C)c2cc3nc(c4c5[nH]c(cc6nc(cc1[nH]2)C(C)=C6CC)c(C)c5C(=O)[C@@H]4C(=O)OC)[C@@H](CCC(=O)O)[C@@H]3C [pheophorbide-a] | low stability |  |  |  |  |  |  |  |  |  |  |  |  |  |  |  |  |  | 
C=Cc1c(C)c2cc3nc(c4c5[nH]c(cc6nc(cc1[nH]2)C(C)=C6CC)c(C)c5C(O)[C@@H]4C(=O)OC)[C@@H](CCC(=O)O)[C@@H]3C (stereo partly drawn) [9-HPbD-a, 9-hydroxypheophorbide-a] |  | 3 | 7 | 10.05 | rapidly declined | 10 | 25 | 100 | 10˜20% | 100 | 100% | 100 | 1/100 | cell cycle arrest occurred in G2/M cell cycle | 3.5 | 646 | no observation of decline of tumor volume |  | 
C=Cc1c(C)c2cc3nc(c4c5[nH]c(cc6nc(cc1[nH]2)C(C)=C6CC)c(C)c5C(=O)C4(O)C(=O)OC)C(CCC(=O)OCC=C(C)CCCC(C)CCCC(C)CCCC(C)C)C3C (stereo not drawn) [10-hydroxypheophytin-a, reference compound] |  |  |  | 3.94 |  | 0 | 0 | 0 | 0% | 5.85 | 5˜10% | <70 |  |  |  |  |  | 100 | fatal toxicity
